The nature of data set [1]: UV-Visible and fluorescence spectrometry. The data set is classed as physicochemical. Particulars: for λmax(nm)in EtOH: UV-Vis absorption maximum in EtOH; for Log ε: UV-Vis in EtOH; for λEm (nm): fluorescence emission, excited at 610 nm. Here is the method: (§1) All of the new prepared phenothiazine-pyridine compounds are deep blue solid, the basic physiochemical properties are measured by UV-Visible and fluorescence spectrometry. […] The maximum absorption is about 650 nm in ethanol, and they are varied based on the compound structure. The fluorescence emission is about 680 nm when excited at 610 nm. All of these compounds have relatively high quantum yield, they are promising diagnostic and imaging agents. The lipophilicity is determined by the partition coefficient (log P), which can be obtained by measuring the UV-Vis absorption of the compound in phosphate buffer saline (PBS) before and after the partition equilibrium between n-octanol and PBS solution, and then calculated following the equation of: Log p=Log [(Abefore/Aafter)−1]. Wherein Abefore and Aafter are the absorption values in PBS solution before and after partition.

Data set [2] is described as follows: Partition coefficient (log P) between n-octanol and PBS by UV-Vis absorption. The data set is classed as physicochemical. The procedure:
as §1

The test system of data set [3] is normal fibroblast WI38 cells. The data set can be described thus: Dark toxicity, MTT assay. The data set is classed as cell-based. Particulars: Homo sapiens, WI-38, 24 h, read-out: IC50 dark toxicity. Here is the method: (§2) Cell lines and culture conditions: A549, HT29, MCF-7, MDA-MB-231 cell lines were maintained in RPMI1640 supplemented with fetal bovine serum (10%) and penicillin-streptomycin solution (1%), and WI38 cells were maintained in DMEM supplemented with fetal bovine serum (10%) and penicillin-streptomycin solution (1%). Approximately 1×10^4 (for A549, HT29, MCF-7, MDA-MB-231) or 1.5×10^4 (for WI38) cells per well were seeded in 96-well plate and incubated overnight light at 37° C. in a humidified atmosphere with 5% CO2.
(§3) Dark toxicity: Cells were incubated with different concentrations of photosensitive drug for 24 h in dark, and the cell viabilities were determined by MTT assay
The IC50 values (50% inhibitory concentration) of the prepared phenothiazine-pyridine compounds 8, 14, 15, 16, 17, 18, 19, 20, 21, 22, 23, and 24 to normal fibroblast cell line WI38 were measured by MTT assay.
In general terms: Formazan colour is commonly taken as a measure of viable cells.

The subject of data set [4] is A549 cell line. The data set can be described thus: Photocytotoxicity (PDT), MTT assay. The class given is cell-based. The conditions noted are these: Homo sapiens, A549, light or radiation study, read-out: IC50 PDT. Here is the method: as §2
(§4) Photocytotoxicity: Cells were incubated with different concentrations of photosensitive drug for 1 h in the dark, then the medium in the well was sucked by a syringe, and washed by PBS. Then a solution of new medium was added, and illuminated by light. After irradiation, the cells were incubated under dark at 37° C. for another 24 h, and the cell viabilities were determined by MTT assay.

Data set [5] concerns HT29 cell line. The data set can be described thus: Photocytotoxicity (PDT), MTT assay. The data set is classed as cell-based. The conditions noted are these: Homo sapiens, HT-29, light or radiation study, read-out: IC50 PDT. Here is the method:
as §2, §4

Data set [6] deals with MCF7 cell line. Put plainly: Photocytotoxicity (PDT), MTT assay. The class given is cell-based. The conditions noted are these: Homo sapiens, MCF7, light or radiation study, read-out: IC50 PDT. Here is the method: as §2, §4
Data set [7] relates to A549 cell line. Put plainly: Dark toxicity, MTT assay. The class given is cell-based. Particulars: Homo sapiens, A549, 24 h, read-out: IC50 DK. The procedure: as §2, §3
The test system of data set [8] is HT29 cell line. Put plainly: Dark toxicity, MTT assay. The class given is cell-based. Particulars: Homo sapiens, HT-29, 24 h, read-out: IC50 DK. Here is the method: as §2, §3
Data set [9] deals with MCF7 cell line. The data set can be described thus: Dark toxicity, MTT assay. The data set is classed as cell-based. The conditions noted are these: Homo sapiens, MCF7, 24 h, read-out: IC50 DK. The procedure: as §2, §3
A further data set relates to S. aureus. The data set can be described thus: Dark toxicity of photosensitizers on bacteria, CFU count. The class given is cell-based, Staphylococcus aureus. The conditions noted are these: absence of light, 6 h. The procedure: (§5) Bacterial growth and culture: Gram-positive S. aureus or Gram-negative E. coli were grown on trypticase soy agar (TSA) for 24 h, then a colony was transferred into tryptica soy broth (TSB) and grown at 37° C. overnight at a 200 rpm speeds of shaking-up using a shaker incubator. The nutrient medium was centrifuged for 5 min at 8000 rpm and diluted by sterile 0.85% saline (pH 7.5) to concentrations of 10^8 CFU/ml, which was used for further incubation with photosensitizers in the following experiments.
(§6) Dark toxicities of the photosensitizers on bacteria: Bacterial suspensions were incubated with photosensitizers at various concentrations at 37° C. in the dark for 6 h. After that, 100 uL of cell suspension were spread on the TSA in 10-fold serial dilutions. Colony forming unit (CFU) was counted after incubation for 24 h at 37° C.

For another data set, the system named is E. coli. The description is as above. The data set is classed as cell-based, Escherichia coli. Particulars: absence of light, 6 h. The procedure:
as §5, §6

As a reminder, the logP is a log measure of how a compound divides between an organic and an aqueous phase. Read a high logP as higher lipophilicity. The term IC50 denotes the concentration needed to halve the response being measured. As to `CCN(CC)c1ccc2nc3c(cc(N)c4nc(C)ccc43)[s+]c2c1` [Compound 8, 5-amino-9-(diethylamino)-3-methylpyrido[3,2-a]phenothiazin-7-ium chloride], the “λmax(nm)in EtOH” value in data set [1] is given as 658 nm. For the same compound, the “Log ε” value in data set [1] was 4.93. In addition, the “λEm (nm)” value in data set [1] stood at 680 nm. In addition, the lipophilicity (logP) in [2] was determined as 0.97. Moreover, the IC50 in data set [3] is above 10000 nM; with A549 cell line [4], 1800 nM; in the data set with HT29 cell line [5], 210 nM; with MCF7 cell line [6] it was 500 nM; in the data set with A549 cell line [7] it was 6500 nM; with HT29 cell line [8], 4600 nM. Besides, the IC50 in the data set on MCF7 cell line [9] amounted to 1100 nM. Also, the dark toxicity entry in the data set with S. aureus and in the data set on E. coli was “essentially non-toxic” each time.
For the compound `CCCCCNc1cc2[s+]c3cc(N(CC)CC)ccc3nc2c2ccc(C)nc12` [Compound 15, 9-(diethylamino)-3-methyl-5-(pentylamino)pyrido[3,2-a]phenothiazin-7-ium chloride], in [1], the “λmax(nm)in EtOH” value is recorded as 651 nm, the “Log ε” value is listed as 4.91 and the “λEm (nm)” value is 684 nm. In addition, the logP in [2] was determined as 1.4. In data set [3], the IC50 is above 10000 nM.
The matching figures for `CCCCCCCNc1cc2[s+]c3cc(N(CC)CC)ccc3nc2c2ccc(C)nc12` [Compound 16, 9-(diethylamino)-5-(heptylamino)-3-methylpyrido[3,2-a]phenothiazin-7-ium chloride]: 651 nm, 4.89, 684 nm, 1.44 and above 10000 nM.
In the same order, the values of `CCCCCCCCCCNc1cc2[s+]c3cc(N(CC)CC)ccc3nc2c2ccc(C)nc12` [Compound 17, 5-(decylamino)-9-(diethylamino)-3-methylpyrido[3,2-a]phenothiazin-7-ium chloride] are 651 nm, 4.89, 684 nm, 2.49 and 7000 nM.
In the same order, the values of `CCN(CC)c1ccc2nc3c(cc(NC)c4nc(C)ccc43)[s+]c2c1` [Compound 18, 9-(diethylamino)-3-methyl-5-(methylamino)pyrido[3,2-a]phenothiazin-7-ium chloride] are 649 nm, 4.70, 683 nm, 1.31 and 5000 nM.
In the case of `CCCN(CCC)c1cc2[s+]c3cc(N(CC)CC)ccc3nc2c2ccc(C)nc12` [Compound 19, 9-(diethylamino)-5-(dipropylamino)-3-methylpyrido[3,2-a]phenothiazin-7-ium chloride], in [1], the “λmax(nm)in EtOH” value came out at 675 nm, the “Log ε” value was found to be 4.67 and the “λEm (nm)” value came out at 684 nm. The same compound gave a logP in data set [2] of 1.42. The IC50 in data set [3] is 9400 nM.
In the same order, the values of `CCCCCN(CCCCC)c1cc2[s+]c3cc(N(CC)CC)ccc3nc2c2ccc(C)nc12` [Compound 20, 9-(diethylamino)-5-(dipentylamino)-3-methylpyrido[3,2-a]phenothiazin-7-ium chloride] are 676 nm, 4.89, 700 nm, 1.48 and above 10000 nM.
In the same order, the values of `CCN(CC)c1ccc2nc3c(cc(NCCCN)c4nc(C)ccc43)[s+]c2c1` [Compound 21, 5-(3-aminopropylamino)-9-(diethylamino)-3-methylpyrido[3,2-a]phenothiazin-7-ium chloride] are 668 nm, 4.82, 686 nm, 0.64 and above 10000 nM.
For the compound `CCN(CC)c1ccc2nc3c(cc(NCCCNC)c4nc(C)ccc43)[s+]c2c1` [Compound 22, 9-(diethylamino)-3-methyl-5-(3-(methylamino)propylamino) pyrido[3,2-a]phenothiazin-7-ium chloride], in [1], the “λmax(nm)in EtOH” value came out at 658 nm. Moreover, the “Log ε” value in [1] is listed as 4.81. In data set [1], the “λEm (nm)” value came to 686 nm. Also, the logP in data set [2] is 0.65. Besides, the half-inhibitory concentration (IC50) in data set [3] is above 10000 nM; with A549 cell line [4] it was 11900 nM; in the data set on HT29 cell line [5], 510 nM; with MCF7 cell line [6], 3100 nM; with A549 cell line [7] it was 19800 nM; in the data set on HT29 cell line [8], 9500 nM. Further, the IC50 in the data set on MCF7 cell line [9] stood at 13200 nM.
With `CCCNc1c(I)c2[s+]c3cc(N(CC)CC)ccc3nc2c2ccc(C)nc12` [Compound 23, 9-(diethylamino)-6-iodo-3-methyl-5-(propylamino)pyrido[3,2-a]phenothiazin-7-ium chloride], the “λmax(nm)in EtOH” value in data set [1] turned out to be 633 nm. The “Log ε” value in data set [1] amounted to 4.87. Also, the “λEm (nm)” value in data set [1] is given as 666 nm. The logP in [2] was found to be 1.48. Also, the 50% inhibitory concentration (IC50) in [3] amounted to 5200 nM; with A549 cell line [4], 680 nM; with HT29 cell line [5], 71 nM; in the data set on MCF7 cell line [6], 120 nM; with A549 cell line [7], 3300 nM; in the data set with HT29 cell line [8] it was 2000 nM. In addition, in the data set on MCF7 cell line [9], the IC50 amounted to 900 nM. Also, the dark toxicity entry in the data set with S. aureus and in the data set with E. coli was “essentially non-toxic” in each case.
As to `CCCCN(CCCC)c1ccc2nc3c(cc(NCCC)c4nc(C)ccc43)[s+]c2c1` [Compound 24, 9-(dibutylamino)-3-methyl-5-(propylamino)pyrido[3,2-a]phenothiazin-7-ium chloride], the “λmax(nm)in EtOH” value in [1] came out at 654 nm. The “Log ε” value in data set [1] is recorded as 4.86. In addition, the “λEm (nm)” value in [1] was found to be 688 nm. Also, the logP in data set [2] was determined as 3.4. Besides, the IC50 in [3] was above 10000 nM; in the data set on A549 cell line [4] it was 100 nM; in the data set with HT29 cell line [5] it was 74 nM; in the data set on MCF7 cell line [6], 77 nM; in the data set with A549 cell line [7], 850 nM; in the data set with HT29 cell line [8], 840 nM. Further, the IC50 with MCF7 cell line [9] worked out at 850 nM. The dark toxicity entry in the data set with S. aureus and in the data set with E. coli was “essentially non-toxic” in each case.

Source of the values: patent US10189862B2, “Phenothiazine-pyridine compounds and uses thereof” (The Chinese University of Hong Kong, priority 2016, dated 2019).
